From US20260130395A1, “Water Dispersible Botanical Compositions” (Aquila Black Limited, priority 2021, published 2026)

Assay: Stability of cannabinoid compounds and Vitamin E components in Beverage 2 (AB Red) by LCMSMS
Format: physicochemical

CCCc1cc(O)c2c(c1)OC(C)(C)[C@@H]1CCC(C)=C[C@@H]21 [THCV, delta-9-tetrahydrocannabivarin]
Stability of Plant-Derived Cannabinoid Compounds in AB Red (stored at 8° C., 0 days): 3.22 µg/mL | Stability of Plant-Derived Cannabinoid Compounds in AB Red (stored at 8° C., 1 days): 3.19 µg/mL | Stability of Plant-Derived Cannabinoid Compounds in AB Red (stored at 8° C., 2 days): 3.17 µg/mL | Stability of Plant-Derived Cannabinoid Compounds in AB Red (stored at 8° C., 3 days): 3.20 µg/mL | Stability of Plant-Derived Cannabinoid Compounds in AB Red (stored at 8° C., 5 days): 3.24 µg/mL | Stability of Plant-Derived Cannabinoid Compounds in AB Red (stored at 8° C., 8 days): 3.17 µg/mL | Stability of Plant-Derived Cannabinoid Compounds in AB Red (stored at 8° C., 9 days): 3.14 µg/mL | Stability of Plant-Derived Cannabinoid Compounds in AB Red (stored at 8° C., 10 days): 3.14 µg/mL | Stability of Plant-Derived Cannabinoid Compounds in AB Red (stored at 8° C., 11 days): 3.24 µg/mL | Stability of Plant-Derived Cannabinoid Compounds in AB Red (stored at 8° C., 12 days): 3.25 µg/mL | Stability of Plant-Derived Cannabinoid Compounds in AB Red (stored at 8° C., 15 days): 3.19 µg/mL | Stability of Plant-Derived Cannabinoid Compounds in AB Red (stored at 8° C., 16 days): 3.25 µg/mL | Stability of Plant-Derived Cannabinoid Compounds in AB Red (stored at 8° C., 17 days): 3.12 µg/mL | Stability of Plant-Derived Cannabinoid Compounds in AB Red (stored at 8° C., 18 days): 3.17 µg/mL | Stability of Plant-Derived Cannabinoid Compounds in AB Red (stored at 8° C., 19 days): 3.19 µg/mL | Stability of Plant-Derived Cannabinoid Compounds in AB Red (stored at 8° C., 22 days): 3.22 µg/mL | Stability of Plant-Derived Cannabinoid Compounds in AB Red (stored at 8° C., 23 days): 3.25 µg/mL | Stability of Plant-Derived Cannabinoid Compounds in AB Red (stored at 8° C., 24 days): 3.15 µg/mL | Stability of Plant-Derived Cannabinoid Compounds in AB Red (stored at 8° C., 25 days): 3.25 µg/mL | Stability of Plant-Derived Cannabinoid Compounds in AB Red (stored at 8° C., 26 days): 3.13 µg/mL | Stability of Plant-Derived Cannabinoid Compounds in AB Red (stored at 8° C., 29 days): 3.22 µg/mL | Stability of Plant-Derived Cannabinoid Compounds in AB Red (stored at 8° C., 30 days): 3.20 µg/mL | Stability of Plant-Derived Cannabinoid Compounds in AB Red (stored at 8° C., 60 days): 3.11 µg/mL | Stability of Plant-Derived Cannabinoid Compounds in AB Red (stored at 8° C., 90 days): 3.10 µg/mL | Stability of Plant-Derived Cannabinoid Compounds in AB Red (stored at 8° C., 120 days): 3.10 µg/mL | Stability of Plant-Derived Cannabinoid Compounds in AB Red (stored at 8° C., 150 days): 3.15 µg/mL | Stability of Plant-Derived Cannabinoid Compounds in AB Red (stored at 8° C., 180 days): 3.10 µg/mL | Stability of Plant-Derived Cannabinoid Compounds in AB Red (stored at 8° C., 210 days): 3.15 µg/mL | Stability of Plant-Derived Cannabinoid Compounds in AB Red (stored at 8° C., 240 days): 3.08 µg/mL | Stability of Plant-Derived Cannabinoid Compounds in AB Red (stored at 8° C., 270 days): 3.15 µg/mL | Stability of Plant-Derived Cannabinoid Compounds in AB Red (stored at 8° C., 300 days): 3.15 µg/mL | Stability of Plant-Derived Cannabinoid Compounds in AB Red (stored at 8° C., 330 days): 3.15 µg/mL | Stability of Plant-Derived Cannabinoid Compounds in AB Red (stored at 8° C., 360 days): 3.08 µg/mL | Stability of Plant-Derived Cannabinoid Compounds in AB Red (stored at 8° C., 390 days): 3.08 µg/mL | Stability of Plant-Derived Cannabinoid Compounds in AB Red (stored at 8° C., 420 days): 3.13 µg/mL | Stability of Plant-Derived Cannabinoid Compounds in AB Red (stored at 8° C., 450 days): 3.08 µg/mL | Stability of Plant-Derived Cannabinoid Compounds in AB Red (stored at 8° C., 480 days): 3.05 µg/mL | Stability of Plant-Derived Cannabinoid Compounds in AB Red (stored at 8° C., 510 days): 2.95 µg/mL | Stability of Plant-Derived Cannabinoid Compounds in AB Red (stored at 8° C., 540 days): 2.99 µg/mL | Stability of Plant-Derived Cannabinoid Compounds in AB Red (stored at 8° C., 570 days): 2.95 µg/mL | Stability of Plant-Derived Cannabinoid Compounds in AB Red (stored at 21-25° C., 0 days): 3.22 µg/mL | Stability of Plant-Derived Cannabinoid Compounds in AB Red (stored at 21-25° C., 1 days): 3.13 µg/mL | Stability of Plant-Derived Cannabinoid Compounds in AB Red (stored at 21-25° C., 2 days): 3.20 µg/mL | Stability of Plant-Derived Cannabinoid Compounds in AB Red (stored at 21-25° C., 3 days): 3.25 µg/mL | Stability of Plant-Derived Cannabinoid Compounds in AB Red (stored at 21-25° C., 5 days): 3.25 µg/mL | Stability of Plant-Derived Cannabinoid Compounds in AB Red (stored at 21-25° C., 8 days): 3.19 µg/mL | Stability of Plant-Derived Cannabinoid Compounds in AB Red (stored at 21-25° C., 9 days): 3.17 µg/mL | Stability of Plant-Derived Cannabinoid Compounds in AB Red (stored at 21-25° C., 10 days): 3.09 µg/mL | Stability of Plant-Derived Cannabinoid Compounds in AB Red (stored at 21-25° C., 11 days): 3.24 µg/mL | Stability of Plant-Derived Cannabinoid Compounds in AB Red (stored at 21-25° C., 12 days): 3.24 µg/mL | Stability of Plant-Derived Cannabinoid Compounds in AB Red (stored at 21-25° C., 15 days): 3.20 µg/mL | Stability of Plant-Derived Cannabinoid Compounds in AB Red (stored at 21-25° C., 16 days): 3.20 µg/mL | Stability of Plant-Derived Cannabinoid Compounds in AB Red (stored at 21-25° C., 17 days): 3.11 µg/mL | Stability of Plant-Derived Cannabinoid Compounds in AB Red (stored at 21-25° C., 18 days): 3.19 µg/mL | Stability of Plant-Derived Cannabinoid Compounds in AB Red (stored at 21-25° C., 19 days): 3.19 µg/mL | Stability of Plant-Derived Cannabinoid Compounds in AB Red (stored at 21-25° C., 22 days): 3.18 µg/mL | Stability of Plant-Derived Cannabinoid Compounds in AB Red (stored at 21-25° C., 23 days): 3.23 µg/mL | Stability of Plant-Derived Cannabinoid Compounds in AB Red (stored at 21-25° C., 24 days): 3.25 µg/mL | Stability of Plant-Derived Cannabinoid Compounds in AB Red (stored at 21-25° C., 25 days): 3.24 µg/mL | Stability of Plant-Derived Cannabinoid Compounds in AB Red (stored at 21-25° C., 26 days): 3.11 µg/mL | Stability of Plant-Derived Cannabinoid Compounds in AB Red (stored at 21-25° C., 29 days): 3.15 µg/mL | Stability of Plant-Derived Cannabinoid Compounds in AB Red (stored at 21-25° C., 30 days): 3.15 µg/mL | Stability of Plant-Derived Cannabinoid Compounds in AB Red (stored at 21-25° C., 60 days): 3.18 µg/mL | Stability of Plant-Derived Cannabinoid Compounds in AB Red (stored at 21-25° C., 90 days): 3.05 µg/mL | Stability of Plant-Derived Cannabinoid Compounds in AB Red (stored at 21-25° C., 120 days): 3.09 µg/mL | Stability of Plant-Derived Cannabinoid Compounds in AB Red (stored at 21-25° C., 150 days): 3.17 µg/mL | Stability of Plant-Derived Cannabinoid Compounds in AB Red (stored at 21-25° C., 180 days): 3.10 µg/mL | Stability of Plant-Derived Cannabinoid Compounds in AB Red (stored at 21-25° C., 210 days): 3.03 µg/mL | Stability of Plant-Derived Cannabinoid Compounds in AB Red (stored at 21-25° C., 240 days): 3.18 µg/mL | Stability of Plant-Derived Cannabinoid Compounds in AB Red (stored at 21-25° C., 270 days): 3.04 µg/mL | Stability of Plant-Derived Cannabinoid Compounds in AB Red (stored at 21-25° C., 300 days): 3.14 µg/mL | Stability of Plant-Derived Cannabinoid Compounds in AB Red (stored at 21-25° C., 330 days): 3.19 µg/mL | Stability of Plant-Derived Cannabinoid Compounds in AB Red (stored at 21-25° C., 360 days): 3.05 µg/mL | Stability of Plant-Derived Cannabinoid Compounds in AB Red (stored at 21-25° C., 390 days): 3.04 µg/mL | Stability of Plant-Derived Cannabinoid Compounds in AB Red (stored at 21-25° C., 420 days): 3.10 µg/mL | Stability of Plant-Derived Cannabinoid Compounds in AB Red (stored at 21-25° C., 450 days): 3.14 µg/mL | Stability of Plant-Derived Cannabinoid Compounds in AB Red (stored at 21-25° C., 480 days): 3.04 µg/mL | Stability of Plant-Derived Cannabinoid Compounds in AB Red (stored at 21-25° C., 510 days): 3.01 µg/mL | Stability of Plant-Derived Cannabinoid Compounds in AB Red (stored at 21-25° C., 540 days): 2.95 µg/mL | Stability of Plant-Derived Cannabinoid Compounds in AB Red (stored at 21-25° C., 570 days): 2.98 µg/mL
